Experimental data reported in PubChem BioAssay (NCI).
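Growth conditions: 96-well plates. Treatment: test compound, 48 hours, 5 concentrations. Analysis: linear interpolation between bracketing concentrations; unreached endpoints set to highest concentration. At the GI50, growth is halved. TGI is the concentration that stops growth completely.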

How the values were obtained:
Assay in all cases: NCI anticancer screen, dose series, 48 h
SK-MEL-2 melanoma = system: SK-MEL-2 melanoma
DU-145 prostate = system: DU-145 prostate
SNB-75 CNS = system: SNB-75 CNS
LOX IMVI melanoma = system: LOX IMVI melanoma
BT-549 breast = system: BT-549 breast
OVCAR-5 ovarian = system: OVCAR-5 ovarian
OVCAR-3 ovarian = system: OVCAR-3 ovarian
HL-60(TB) leukemia = system: HL-60(TB) leukemia
SF-539 CNS = system: SF-539 CNS
MOLT-4 leukemia = system: MOLT-4 leukemia

SMILES | GI50 (SK-MEL-2 melanoma) [µM] | TGI (SK-MEL-2 melanoma) [µM] | GI50 (DU-145 prostate) [µM] | TGI (DU-145 prostate) [µM] | GI50 (SNB-75 CNS) [µM] | TGI (SNB-75 CNS) [µM] | GI50 (LOX IMVI melanoma) [µM] | TGI (LOX IMVI melanoma) [µM] | GI50 (BT-549 breast) [µM] | TGI (BT-549 breast) [µM] | GI50 (OVCAR-5 ovarian) [µM] | TGI (OVCAR-5 ovarian) [µM] | GI50 (OVCAR-3 ovarian) [µM] | TGI (OVCAR-3 ovarian) [µM] | GI50 (HL-60(TB) leukemia) [µM] | TGI (HL-60(TB) leukemia) [µM] | GI50 (SF-539 CNS) [µM] | TGI (SF-539 CNS) [µM] | GI50 (MOLT-4 leukemia) [µM] | TGI (MOLT-4 leukemia) [µM]
CC1=C2C(=C[C@@](C)(CO)[C@@H]2OC(=O)N(C)CCN(C)C(=O)OC(C)(C)C)C(=O)[C@](C)(O)C12CC2 | 7.63 | 17.3 | 1.78 | 32.4 | 5.29 | 11.8 | 12.2 | > 50 | 6.61 | 20.6 | 2.67 | > 50 | 2.31 | 21 | 2.3 | 46.4 | 7.92 | 21.2 | 31.5 | > 50
COc1cc(/C=C/C(=O)/C=C/c2cc(OC)c3c(c2)OCO3)cc2c1OCO2 | > 100 | > 100 | 18.4 | > 100 | 8.55 | 42.5 | 1.89 | 4.35 | 3.02 | 8.81 | > 100 | > 100 | 7.66 | > 100 | 63.4 | > 100 | 22.6 | > 100 | 9 | > 100
COc1ccc2c(c1)C(=O)/C(=C/c1cccc(OCC(=O)c3ccccc3)c1)CC2 | 13.4 | > 100 | 32.6 | > 100 | 42.4 | > 100 | 9.61 | > 100 | 27.1 | > 100 | > 100 | > 100 | 18.3 | > 100 | 2.18 | 5.16 | 64.7 | > 100 | 3.05 | 6.82
CCOc1ccccc1CCN=C1NC(=O)/C(=C/c2ccc3ncccc3c2)S1 | 4.64 | 11.5 | 1.2 | > 16.2 | 0.536 | 7.79 | 1.16 | 7.9 | 1.74 | > 12.7 | 3.09 | 15.8 | 0.772 | 2.29 | 0.789 | 2.65 | 0.751 | 2.95 | 4.02 | > 25
O=C(NCC1CC1)c1ccc(-c2cccc(C(=O)NC3CC3)c2)cc1 | > 25 | > 25 | > 25 | > 25 | > 25 | > 25 | > 25 | > 25 | > 25 | > 25 | > 25 | > 25 | > 25 | > 25 | > 25 | > 25 | > 25 | > 25 | > 25 | > 25
CCc1c2c(nc3ccc(OCc4ccc(B(O)O)cc4)cc13)-c1cc3c(c(=O)n1C2)COC(=O)[C@]3(O)CC | 0.63 |  | < 0.0158 | 6.05 | < 0.0167 | 0.321 | < 0.01 | 0.15 | 0.0432 | > 26.5 | 0.253 |  | 0.172 | 4.46 | 0.0353 | > 100 | < 0.0117 | 0.155 | 0.0101 | > 100
Clc1ccc(-c2cn3ccnc3c(-c3ccc(Cl)cc3)n2)cc1 | 61.9 | > 100 | 25.3 | > 100 | > 100 | > 100 | 12.7 | 31.5 | 46 | > 100 | 32.9 | > 100 | 16.8 | > 100 | 0.954 | 19 | 26.2 | > 100 | 0.462 | > 100
